Measurements reported in patent US11680082B2, “Conjugates of montelukast and peptides” (ENLITISA (SHANGHAI) PHARMACEUTICAL CO., LTD, priority 2018, dated 2023).
pIC50: −log10 of the molar value. Counter-ions that a name gives are not always drawn. Non-standard residues stand in square brackets, D forms with d. Residues, ends and D or L forms follow the SMILES beside them. No end group written: not given here. *: point of attachment. X2 = CC(C)(O)c1ccccc1CC[C@@H](SCC1(CC(=O)*)CC1)c1cccc(/C=C/c2ccc3ccc(Cl)cc3n2)c1; Dopa = N[C@@H](Cc1ccc(O)c(O)c1)C(=O)O; Hyp = O=C(O)[C@@H]1C[C@@H](O)CN1

Tests used:
[1] = molecular target: T1, CysLTR1 (Homo sapiens, UniProt Q9Y271); test: In vitro CysLTR1 FLIPR antagonist test; type: cell-based; conditions: CYSLTR1/HEK293 cell line, Fluo-4 calcium assay
T1 construct: expressed in transfected cells; host or cells: HEK293
T1 sequence (Q9Y271 1-337): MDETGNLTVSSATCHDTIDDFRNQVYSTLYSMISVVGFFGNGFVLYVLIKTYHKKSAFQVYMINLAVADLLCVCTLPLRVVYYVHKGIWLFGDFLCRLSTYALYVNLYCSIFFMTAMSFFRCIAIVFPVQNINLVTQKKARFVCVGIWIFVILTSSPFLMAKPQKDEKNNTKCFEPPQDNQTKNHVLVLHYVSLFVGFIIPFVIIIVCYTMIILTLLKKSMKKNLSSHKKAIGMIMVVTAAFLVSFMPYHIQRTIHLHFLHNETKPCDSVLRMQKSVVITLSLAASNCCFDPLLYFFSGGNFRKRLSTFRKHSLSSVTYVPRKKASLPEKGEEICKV
Procedure: 10 different concentrations were tested in duplicate for each compound.
A CYSLTR1/HEK293 cell line was used. The cells were prepared and 20 μL of the cell suspension were added to the 384-well plates (20K/well; poly-D-Lysine protein coating plate, Greiner #781946). The plate was placed at 37° C. in a 5% CO2 incubator overnight.
A probenecid in FLIPR assay buffer was prepared from the relevant starter pack (Cat. no. F10471): A 250 mM stock solution of water-soluble probenecid was prepared by adding 1 mL of Fluo-4 Direct™ calcium assay buffer to 77 mg vials containing probenecid (Component B for Cat. nos. F10471). 10 mL of Fluo-4 Direct™ calcium assay buffer and 200 μL of the 250 mM probenecid stock solution was added to one bottle of Fluo-4 Direct™ calcium reagent (Component A). This 2× Fluo-4 Direct™ calcium reagent loading solution was sufficient for two microplates. The solution was vortexed allowed to sit for 5 minutes (protected from light), to ensure that the reagent was completely dissolved. The reagent was prepared fresh each day
All of the compounds were dissolved and serially diluted in Fluo-4 Direct™ calcium assay buffer (without probenecid). […] Fluorescence was measured using the instrument settings appropriate for excitation at 494 nm and emission at 516 nm.
The data were analysed using Prism (GraphPad Software, USA) and IC50s calculated for each compound.

[2] = system: xylene induced ear swelling; conditions: hydrogel 0.5 mg/g, 40 μL on right ear
Procedure: Essentially the same protocol to that described in Example 5 above was carried out on 15 healthy male BALB/c mice, using Compounds J (see Example 40 above) as test compound. The mice were randomly divided into 3 groups as described in Table 20 below, with 5 mice in each group.
All excipients were obtained from Sinopharm Chemical Reagent Co. Ltd. The gel was made up with water for injection.
Dexamethasone acetate cream (DEX cream; 5 mg of dexamethasone in 10 g of cream; Fuyuan Pharmaceutical Co. Ltd., Anhui, China) was used as a positive control. 40 μL of the various treatments drugs were applied to the right ear of each group.

[3] = system: full thickness skin wound; test: Acute wound model I; type: in vivo, C57BL/6 mice; conditions: lower dose, Day 4
Procedure: 6-8 weeks old male C57BL/6 mice were supplied by Changzhou Cvens Experimental Animal Co. Ltd. Prior to any experiments being conducted, mice were housed under standardized conditions (at a constant temperature or 22±2° C., with alternating 12 hour periods of light and darkness), and were fed on a standard mouse diet with water, for about a week.
General anesthesia was induced using intraperitoneal 3% chloral hydrate (Sinopharm Chemical Reagent Co., Ltd.; 1 mL/10 g of body weight). The hair on the back was shaved by a baby hair shaver and depilated with cream. The skin area was wiped and sterilized with 75% alcohol twice.
EMS skin biopsy punch (Electron Microscopy Sciences, P.O. Box 550, 1560 Industry Road, Hatfield, Pa. 19440) with an 18 mm diameter was used to make a round wound on the midline of the back. Full thickness skin was removed, and the depth reached the fascia. The wounds left open without suture.
Different drugs were administrated topically at 50 μL/wound, once daily from Day 0 to Day 7. The model group was given same amount of normal saline.
Compound B was obtained as a powder from GL Biochem, and was prepared as described in Example 2 above). Ala-Lys-Pro-Ser-Tyr-Hyp-Hyp-Thr-DOPA-Lys (Compound 2; SEQ ID No: 4) was obtained as a powder from GL Biochem, and was prepared essentially as described in Example 2 above, but without coupling montelukast at the end. […]

[4] = system: full thickness skin wound; test: Acute wound model II; type: in vivo, C57BL/6 mice; conditions: topical once daily Day 0 to Day 7
Procedure: A similar experiment with essentially the same protocol to that described in Example 6 above was carried out on 6 to 8 week-old male C57BL/6 mice, EMS skin biopsy punch with a 12 mm diameter was used to make two round wounds on the midline of the back. The two circles were tangential to each other and the skin between the circles was cut along the upper and lower tangents. Scissors were used to trim the wound. The wound was an oval shape. […] The model group was given same amount of normal saline. [table]

[5] = system: ammonia induced cough; test: Antitussive experiment, ammonia induced cough method; type: in vivo, mice; conditions: 10 mg/kg intragastric
Procedure: 60 mice were randomly divided into 5 groups according to their body weight: CMC-Na negative control group, dextromethorphan hydrobromide positive control group and high, medium and low doses (of Compound A, Example 1) groups. Each group contained 12 mice, 6 males and 6 females.
The test drug was administered via atomization inhalation (0.15 mL/min) for 1 min, once daily for 5 days. The positive control drug was administered once daily by intragastric administration at 10 mg/kg for 5 days.
The mice were placed in an inverted beaker 1, 2, and 4 hours after the last drug administration (either Compound A or the positive control drug). 1 mL of aqueous ammonia (25.0 to 28.0%) was placed on top of a boiling water bath and was evaporated into the beaker. The mice were stimulated by ammonia vapor for a predetermined time of 63.1, 50.1, 39.8, 31.6, 25.1, 20.0, 15.9 or 12.6 seconds. The difference in the logarithm of two adjacent stimulating times was set at 0.1, and being 1.8, 1.7, 1.6, 1.5, 1.4, 1.3, 1.2 and 1.1. The mice were then quickly moved to a bell jar. The number of coughs within 1 minute was detected with a stethoscope. Typical coughs occurring three or more times in one minute are called ‘cough’ and those occurring less than three times in one minute are ‘cough free’.
The ammonia stimulation time for the next mouse was determined according to the principle of the sequential method, i.e. if the first mouse was ‘coughing’, the next mouse was stimulated for a shorter period of time. Conversely, if the first mouse was ‘coughless’, the next mouse was stimulated for a longer period of time.
The EDT50 was defined as the ammonia stimulating time at which half mice developed a “cough” and calculated by the equation: EDT50=lg^−1c/n (c equals the […], r is the number of animals in each stimulating time group, x is the logarithm of stimulation time and n was the number of animals in each group).
Where R1=(EDT50 in treatment group/EDT50 in control group)×100%, R>130% indicates an antitussive effect. R>150% indicates a strong antitussive effect.

[6] = system: bleomycin-induced lung fibrosis; test: Idiopathic pulmonary fibrosis (IPF) model in rats (bleomycin); type: in vivo, SD rats; conditions: score, 28 days
Procedure: 60 adult SD rats (30 male, 30 female) were purchased from Zhejiang Experimental Animal Center, China. Animals were housed at between 21 and 26° C. and at between 40 and 70% relative humidity with free access to food and water.
The rats were anaesthetized and placed on an operating table in the supine position, to expose the trachea. Bleomycin (5 mg/kg, Bleomycin Hydrochloride for Injection, Haizheng Pfizer Pharmaceutical Co., Ltd.) and saline solution were injected into the trachea through the gap between the tracheal cartilage rings.
The sham-operation group was given an equal volume of normal saline instead of bleomycin. The rats were lifted vertically immediately after administration and were rotated to allow bleomycin to evenly disperse. […]
After 28 days of administration, rats were anesthetized by intraperitoneal injection of chloral hydrate and then sacrificed. […] The lung wet weight was weighed, and the lung coefficient was calculated (lung wet weight/rat weight×1000) and are shown in Table 18 below. […]
The fixed lung tissue was embedded in paraffin and sequential 4 μm sections were stained with haematoxylin-eosin (HE) and modified Masson's trichrome. Fibrotic lung injury was assessed morphologically by semiquantitative parameters. All morphological changes were scored according to the severity of damages. […] No lesion was scored as 0. […]

## C[C@H](NC(=O)CC1(CS[C@H](CCc2ccccc2C(C)(C)O)c2cccc(/C=C/c3ccc4ccc(Cl)cc4n3)c2)CC1)C(=O)N[C@@H](CCCCN)C(=O)N1CCC[C@H]1C(=O)N[C@@H](CO)C(=O)N[C@@H](Cc1ccc(O)cc1)C(=O)N1C[C@H](O)C[C@H]1C(=O)N[C@H](C(=O)N[C@@H](Cc1ccc(O)cc1)C(=O)N1C[C@H](O)C[C@H]1C(=O)N[C@@H](CCCCN)C(=O)O)[C@@H](C)O [Compound G, Montelukast-Ala-Lys-Pro-Ser-Tyr-Hyp-Thr-Tyr-Hyp-Lys] (X2-AKPSY[Hyp]TY[Hyp]K-OH)
[1]; repeat of Example 38
  pIC50: 7.00

## Montelukast-Ala-Lys-Pro-Ser-Tyr-Hyp-Hyp-Thr-Tyr-Hyp-Lys [Compound J]
[2]
  edema caused by acute inflammation (ear swelling): very good effect on eliminating the edema caused by acute inflammation

## Ala-Lys-Pro-Ser-Tyr-Hyp-Hyp-Thr-DOPA-Lys (AKPSY[Hyp][Hyp]T[Dopa]K; not fully specified; printed as Ala-Lys-Pro-Ser-Tyr-Hyp-Hyp-Thr-DOPA-Lys) [Compound 2]
[3]
  Hyp content in wound tissue: show effects at early stage

## Montelukast Styrene-Ala-Lys-Pro-pSer-Tyr-Hyp-Hyp-Thr-Tyr-Lys [Compound C]
[4]
  unhealed wound rate: comparable effects on promoting the wound healing

## COc1ccc2c(c1)[C@]13CCCC[C@@H]1[C@H](C2)N(C)CC3 [positive, dextromethorphan hydrobromide]
[5]; 1 h after administration
  EDT50/s: 50.1 s
  R1/%: 241.7%
[5]; 2 h after administration
  EDT50/s: 44.7 s
  R1/%: 207.3%
[5]; 4 h after administration
  EDT50/s: 41.4 s
  R1/%: 184.8%

## C=C(C)c1ccccc1CC[C@@H](SCC1(CC(=O)O)CC1)c1cccc(/C=C/c2ccc3ccc(Cl)cc3n2)c1 [montelukast styrene]
[1]; Example 37
  pIC50: 6.80

## Cc1ccc(=O)n(-c2ccccc2)c1 [pirfenidone]
[6]; collagen deposition in pulmonary interstitium
  Masson evaluation Mean: 2.50
[6]; sum of degree of fibrosis and inflammation
  HE evaluation Mean: 5.50
